Values belong to the compound of their own block, whether it stands above or below them.
Legend:
[1] = target: T1, LGp40 (GAPDH of L. gasseri) (Lactobacillus gasseri, UniProt A0A1V3Y2M1); experiment: X-ray crystallography, […] A; conditions: NAD-binding site, Asp38 hydrogen bonds; crystals at pH 6.5
T1 construct: gene gap; His6-tagged, pET21b, E. coli BL21(DE3), Ni-NTA then Q column; 37 kDa; tetramer through crystal symmetry

[2] = target: LGp40, His-tagged recombinant glyceraldehyde-3-phosphate dehydrogenase (GAPDH) of Lactobacillus gasseri (Lactobacillus gasseri (BCRC14619)); experiment: crystal structure; X-ray, 1.88 A, space group I4(1)22; one LGp40 copy in the asymmetric unit, tetramer through crystal symmetry; crystals from 0.1 M sodium cacodylate pH 6.5, 16% w/v PEG 4000, 25 C
[3] = target: T2, human plasminogen (Homo sapiens, UniProt P00747); experiment: competitive solid-phase binding assay (ELISA), displacement of GAPDH; conditions: competition with 125 ng His-tagged bacterial GAPDH; EACA 1.25 to 10 mM; lysine analog
T2 construct: gene PLG; commercial (BioVision), 1 microgram coated on polystyrene plate
T2 sequence (P00747 20-810): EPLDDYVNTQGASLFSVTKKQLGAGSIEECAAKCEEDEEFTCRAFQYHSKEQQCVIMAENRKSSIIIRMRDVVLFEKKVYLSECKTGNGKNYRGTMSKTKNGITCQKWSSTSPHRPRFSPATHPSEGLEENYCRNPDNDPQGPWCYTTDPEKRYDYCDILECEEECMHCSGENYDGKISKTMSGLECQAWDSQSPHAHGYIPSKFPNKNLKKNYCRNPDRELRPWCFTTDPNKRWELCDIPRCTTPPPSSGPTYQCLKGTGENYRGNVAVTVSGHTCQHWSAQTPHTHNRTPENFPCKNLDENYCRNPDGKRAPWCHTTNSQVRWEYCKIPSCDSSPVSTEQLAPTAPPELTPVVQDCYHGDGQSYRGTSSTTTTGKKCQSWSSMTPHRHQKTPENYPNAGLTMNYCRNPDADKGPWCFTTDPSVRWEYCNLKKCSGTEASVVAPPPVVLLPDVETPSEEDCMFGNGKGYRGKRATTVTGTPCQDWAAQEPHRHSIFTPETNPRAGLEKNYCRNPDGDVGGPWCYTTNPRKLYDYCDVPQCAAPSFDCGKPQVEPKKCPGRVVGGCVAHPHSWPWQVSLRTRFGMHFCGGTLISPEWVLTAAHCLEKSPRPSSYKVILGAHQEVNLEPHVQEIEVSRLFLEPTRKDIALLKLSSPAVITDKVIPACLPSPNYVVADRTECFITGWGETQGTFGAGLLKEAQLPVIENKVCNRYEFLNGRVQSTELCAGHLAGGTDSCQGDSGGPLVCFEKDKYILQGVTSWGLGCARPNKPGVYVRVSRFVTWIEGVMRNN

Compound: NC(=O)c1ccc[n+]([C@@H]2O[C@H](COP(=O)(O)OP(=O)(O)OC[C@H]3O[C@@H](n4cnc5c(N)ncnc54)[C@H](O)[C@@H]3O)[C@@H](O)[C@H]2O)c1 [NAD^+]
- X-ray crystallography, 1.88 A [1]: contributes two hydrogen-bond interactions with NAD^+ to provide stronger binding forces

- stoichiometry N [2]: 4
Compound: LGp40, His-tagged recombinant glyceraldehyde-3-phosphate dehydrogenase (GAPDH) of Lactobacillus gasseri (enzyme)

Compound: NCCCCCC(=O)O [EACA]
- competitive solid-phase binding assay (ELISA), displacement of GAPDH [3]: a competitive binding assay using EACA, a lysine analog

— article PMC9520948, “Moonlighting glyceraldehyde-3-phosphate dehydrogenase (GAPDH) protein of Lactobacillus gasseri attenuates allergic asthma via immunometabolic change in macrophages” (Journal of Biomedical Science, 2022)
